Data on 30 compounds can be found in patent publication US9260408B2, “Dihydroquinoline-2-one derivatives” (Hoffmann-La Roche Inc., priority 2011, dated 2016).

In one experiment the target is T1, human CYP11B2 (Homo sapiens, UniProt P19099).
T1 construct: expressed in transfected cells
T1 sequence (P19099 25-503): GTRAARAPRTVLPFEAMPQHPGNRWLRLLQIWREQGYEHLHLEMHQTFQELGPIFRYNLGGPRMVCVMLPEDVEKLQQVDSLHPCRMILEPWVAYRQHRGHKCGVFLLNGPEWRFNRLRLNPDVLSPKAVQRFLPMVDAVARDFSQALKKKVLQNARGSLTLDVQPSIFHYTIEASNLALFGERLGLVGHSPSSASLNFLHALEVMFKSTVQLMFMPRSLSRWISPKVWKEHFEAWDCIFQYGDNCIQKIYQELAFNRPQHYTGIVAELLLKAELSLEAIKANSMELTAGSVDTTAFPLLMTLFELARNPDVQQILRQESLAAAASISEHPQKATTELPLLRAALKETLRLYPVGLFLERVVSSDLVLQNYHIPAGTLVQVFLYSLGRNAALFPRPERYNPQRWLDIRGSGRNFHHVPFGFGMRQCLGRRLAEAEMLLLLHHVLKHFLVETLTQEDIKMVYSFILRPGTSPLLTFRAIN
In words: G-402 cellular enzyme assay, human CYP11B2 (aldosterone release, HTRF). The class given is cell-based. The conditions noted are these: G-402 cells expressing human CYP11B2; 1 μM Deoxycorticosterone. The gist of the method:
(§1)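 EC50 comes from least-squares fitting of a 4-parameter MMF curve to steroid product levels, measured by HTRF as aldosterone for CYP11B2 or cortisol for CYP11B1. Stably transfected G-402 host cells were given substrate (1 μM deoxycorticosterone or deoxycortisol, respectively) with inhibitor for 16 h in medium with 2.5% charcoal-treated FCS.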

Another experiment addresses T2, human CYP11B1 (Homo sapiens, UniProt P15538).
T2 construct: expressed in transfected cells
T2 sequence (P15538 25-503): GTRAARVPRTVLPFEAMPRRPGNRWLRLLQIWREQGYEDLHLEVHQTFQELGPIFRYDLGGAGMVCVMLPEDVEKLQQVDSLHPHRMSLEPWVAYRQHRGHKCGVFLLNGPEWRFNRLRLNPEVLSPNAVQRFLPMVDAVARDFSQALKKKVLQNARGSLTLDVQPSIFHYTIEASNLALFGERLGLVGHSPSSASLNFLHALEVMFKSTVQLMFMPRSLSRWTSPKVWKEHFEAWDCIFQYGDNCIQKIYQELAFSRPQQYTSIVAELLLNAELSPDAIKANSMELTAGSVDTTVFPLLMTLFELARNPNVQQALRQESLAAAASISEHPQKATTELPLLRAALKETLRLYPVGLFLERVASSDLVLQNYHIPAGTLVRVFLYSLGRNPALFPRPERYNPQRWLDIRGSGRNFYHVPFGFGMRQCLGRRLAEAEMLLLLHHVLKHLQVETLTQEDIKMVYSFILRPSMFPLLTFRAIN
In words: G-402 cellular enzyme assay, human CYP11B1 (cortisol release, HTRF). The note with it: G-402 cells expressing human CYP11B1; 1 μM Deoxycortisol. It counts as cell-based. In short, it runs like this: as §1
In general terms: In TR-FRET formats the signal depends on donor and acceptor labels being close together.

Usually EC50 stands for the concentration at which the effect is half-maximal. Low values mean an effect from little substance, high ones a need for much substance.

For the compound `CN1C(=O)CCc2cc(-c3cncc(O[C@@H]4CCN(C(=O)OC(C)(C)C)C4)c3)c(F)cc21` [Example 46, (R)-3-[5-(7-Fluoro-1-methyl-2-oxo-1,2,3,4-tetrahydro-quinolin-6-yl)-pyridin-3-yloxy]-pyrrolidine-1-carboxylic acid tert-butyl ester], the results for the EC50 on human CYP11B2 and at human CYP11B1 were 5 nM and 298 nM, respectively.
Regarding `CN1C(=O)CCc2cc(-c3cncc(CNC(=O)c4nccn4C)c3)ccc21` [Example 83], the half-maximal effective concentration (EC50) came to 9 nM at human CYP11B2 and 46 nM on human CYP11B1.
Consider `CCN(C(C)c1cncc(-c2ccc3c(c2)CCC(=O)N3C)c1)S(=O)(=O)CC` (racemic) [Example 187, (rac)-Ethanesulfonic acid ethyl-{1-[5-(1-methyl-2-oxo-1,2,3,4-tetrahydro-quinolin-6-yl)-pyridin-3-yl]-ethyl}-amide], for which the EC50 is 27 nM on human CYP11B2 and 705 nM at human CYP11B1.
Consider `CCS(=O)(=O)NCCOc1cncc(-c2ccc3c(c2)CCC(=O)N3C)c1` [Example 151, ethanesulfonic acid {2-[5-(1-methyl-2-oxo-1,2,3,4-tetrahydro-quinolin-6-yl)-pyridin-3-yloxy]-ethyl}-amide], for which the values for the EC50 on human CYP11B2 and on human CYP11B1 were 5 nM and 90 nM, respectively.
For the compound `Cc1ocnc1C(=O)NCc1cncc(-c2ccc3c(c2)CCC(=O)N3C)c1` [Example 112], the EC50 at human CYP11B2 is 6 nM; on human CYP11B1 it was 151 nM.
In the case of `CCS(=O)(=O)NC(C)(C)c1cncc(-c2ccc3c(c2)CCC(=O)N3C)c1` [Example 183, Ethanesulfonic acid {1-methyl-1-[5-(1-methyl-2-oxo-1,2,3,4-tetrahydro-quinolin-6-yl)-pyridin-3-yl]-ethyl}-amide], the EC50 on human CYP11B2 is 4 nM; at human CYP11B1, 268 nM.
`Cc1cccc(C(=O)NCc2cncc(-c3ccc4c(c3)CCC(=O)N4C)c2)n1` [Example 117]: the concentration giving a half-maximal response (EC50) on human CYP11B2 turned out to be 8 nM; at human CYP11B1 it was 121 nM.
`CN1C(=O)CCc2cc(-c3cncc(O[C@H]4CCCNC4)c3)ccc21` [Example 61, 1-Methyl-6-[5-((S)-piperidin-3-yloxy)-pyridin-3-yl]-3,4-dihydro-1H-quinolin-2-one]: the EC50 on human CYP11B2 was 508 nM; at human CYP11B1 it was 20100 nM.
Regarding `CCS(=O)(=O)NCc1cncc(-c2ccc3c(c2)C(C)(C)CC(=O)N3C)c1` [Example 17], the EC50 was 4650 nM at human CYP11B2 and greater than 10000 nM at human CYP11B1.
Turning to `CCS(=O)(=O)NC(C)c1cncc(-c2ccc3c(c2)CCC(=O)N3C)c1` (single isomer, unassigned) [Example 174, Ethanesulfonic acid {(S or R)-1-[5-(1-methyl-2-oxo-1,2,3,4-tetrahydro-quinolin-6-yl)-pyridin-3-yl]-ethyl}-amide], the EC50 came to 33 nM on human CYP11B2 and 1230 nM at human CYP11B1.
Take `Cc1noc(C)c1C(=O)NC(C)c1cncc(-c2ccc3c(c2)CCC(=O)N3C)c1Cl` (single isomer, unassigned) [Example 257, 3,5-Dimethyl-isoxazole-4-carboxylic acid {(R or S)-1-[4-chloro-5-(1-methyl-2-oxo-1,2,3,4-tetrahydro-quinolin-6-yl)-pyridin-3-yl]-ethyl}-amide]: the EC50 at human CYP11B2 is 22 nM; at human CYP11B1, 679 nM.
On to `CN1C(=O)CCc2cc(-c3cncc(CNC(=O)c4ccc(Cl)nn4)c3)ccc21` [Example 104], for which the concentration giving a half-maximal response (EC50) at human CYP11B2 came to 10 nM; at human CYP11B1 it was 94 nM.
On to `CN1C(=O)CCc2cc(-c3cncc(NCCO)n3)c(F)cc21` [Example 26], for which the EC50 stood at 18 nM at human CYP11B2 and 570 nM at human CYP11B1.
As for `CCS(=O)(=O)N1CCC[C@H](Oc2cncc(-c3ccc4c(c3)CCC(=O)N4C)c2)C1` [Example 160, 6-[5-((S)-1-Ethanesulfonyl-piperidin-3-yloxy)-pyridin-3-yl]-1-methyl-3,4-dihydro-1H-quinolin-2-one], the EC50 on human CYP11B2 stood at 113 nM; on human CYP11B1, 716 nM.
Regarding `CN1C(=O)CCc2cc(-c3cncc(OCCNC(=O)OC(C)(C)C)c3)ccc21` [Example 39, {2-[5-(1-Methyl-2-oxo-1,2,3,4-tetrahydro-quinolin-6-yl)-pyridin-3-yloxy]-ethyl}-carbamic acid tert-butyl ester], the EC50 is 10 nM on human CYP11B2 and 120 nM on human CYP11B1.
Regarding `CN1C(=O)CCc2cc(-c3cncc(CNC(=O)c4ncccn4)c3)ccc21` [Example 99], the figures for the EC50 on human CYP11B2 and at human CYP11B1 were 35 nM and 1120 nM, respectively.
For `Cc1noc(C)c1C(=O)NCc1cncc(-c2ccc3c(c2)CCC(=O)N3C)c1C` [Example 223, 3,5-Dimethyl-isoxazole-4-carboxylic acid [4-methyl-5-(1-methyl-2-oxo-1,2,3,4-tetrahydro-quinolin-6-yl)-pyridin-3-ylmethyl]-amide], in that order: 36 nM and 2860 nM.
With `COc1ncc(C(=O)NCc2cncc(-c3ccc4c(c3)CCC(=O)N4C)c2)cn1` [Example 82], the concentration for a half-maximal effect (EC50) on human CYP11B2 came to 8 nM; on human CYP11B1, 20 nM.
`Cc1noc(C)c1C(=O)N(C)Cc1cncc(-c2ccc3c(c2)CCC(=O)N3C)c1` [Example 188, 3,5-Dimethyl-isoxazole-4-carboxylic acid methyl-[5-(1-methyl-2-oxo-1,2,3,4-tetrahydro-quinolin-6-yl)-pyridin-3-ylmethyl]-amide]: the concentration giving a half-maximal response (EC50) is 14 nM on human CYP11B2 and 572 nM on human CYP11B1.
Turning to `CN1C(=O)CCc2cc(-c3cncc(O[C@H]4CCN(C(=O)C5CC5)C4)c3)ccc21` [Example 76, 6-[5-((S)-1-Cyclopropanecarbonyl-pyrrolidin-3-yloxy)-pyridin-3-yl]-1-methyl-3,4-dihydro-1H-quinolin-2-one], the values for the EC50 at human CYP11B2 and at human CYP11B1 were 23 nM and 452 nM, respectively.
On to `Cc1cnc(C(=O)NCc2cncc(-c3ccc4c(c3)CCC(=O)N4C)c2)cn1` [Example 124], for which the EC50 on human CYP11B2 came to 5 nM; at human CYP11B1 it was 138 nM.
For `CN1C(=O)CCc2cc(-c3cncc(CNC(=O)c4cncnc4)c3)ccc21` [Example 86], in that order: 4 nM and 108 nM.
Regarding `CN1C(=O)CCc2cc(-c3cncc(C4=CN(C(=O)OC(C)(C)C)CCC4)c3)ccc21` [Example 231, 5′-(1-Methyl-2-oxo-1,2,3,4-tetrahydro-quinolin-6-yl)-5,6-dihydro-4H-[3,3′]bipyridinyl-1-carboxylic acid tert-butyl ester], the 50% effective concentration (EC50) was found to be 19 nM at human CYP11B2 and 802 nM at human CYP11B1.
Take `CN(Cc1cncc(-c2cc3c(cc2F)N(C)C(=O)CC3)c1)C(=O)c1ncccc1Cl` [Example 200, 3-Chloro-pyridine-2-carboxylic acid [5-(7-fluoro-1-methyl-2-oxo-1,2,3,4-tetrahydro-quinolin-6-yl)-pyridin-3-ylmethyl]-methyl-amide]: the EC50 on human CYP11B2 was 1 nM; on human CYP11B1 it was 31 nM.
Turning to `CN1C(=O)CCc2cc(-c3cncc(NCc4ccccc4)n3)c(F)cc21` [Example 27], the EC50 is 7 nM on human CYP11B2 and 270 nM on human CYP11B1.
Regarding `CC(C)(C)OC(=O)N1CC[C@H](Oc2cncc(-c3ccc4c(c3)CCC(=O)N4)c2)C1` [Example 214, (S)-3-[5-(2-oxo-1,2,3,4-tetrahydro-quinolin-6-yl)-pyridin-3-yloxy]-pyrrolidine-1-carboxylic acid tert-butyl ester], the EC50 is 30 nM on human CYP11B2 and 104 nM on human CYP11B1.
In the same order, the values of `CN1C(=O)CCc2cc(-c3cncc(CNC(=O)c4ccnnc4)c3)ccc21` [Example 89] are 14 nM and 276 nM.
In the same order, the values of `COc1cc(C(=O)NCc2cncc(-c3ccc4c(c3)CCC(=O)N4C)c2)on1` [Example 40, 3-Methoxy-isoxazole-5-carboxylic acid [5-(1-methyl-2-oxo-1,2,3,4-tetrahydro-quinolin-6-yl)-pyridin-3-ylmethyl]-amide] are 15 nM and 750 nM.
Regarding `CN1C(=O)CCc2cc(-c3cncc(OC[C@@H]4CCN4C(=O)C4CC4)c3)ccc21` [Example 91], the concentration for a half-maximal effect (EC50) came to 43 nM on human CYP11B2 and 3070 nM on human CYP11B1.
As to `CN1C(=O)CCc2cc(-c3cncc(O[C@@H]4CCN(C(=O)OC(C)(C)C)C4)c3)ccc21` [Example 53, (R)-3-[5-(1-Methyl-2-oxo-1,2,3,4-tetrahydro-quinolin-6-yl)-pyridin-3-yloxy]-pyrrolidine-1-carboxylic acid tert-butyl ester], the values for the concentration giving a half-maximal response (EC50) at human CYP11B2 and on human CYP11B1 were 8 nM and 453 nM, respectively.
